Test results from patent EP3325012B1, “CINEOLE-CONTAINING COMPOSITION FOR TREATING NOSE POLYPS” (Maria Clementine Martin Klosterfrau Vertriebsgesellschaft …, priority 2015, dated 2017).
“Also recorded” adds a separate entry of the source.

Columns and labels:
[1] = system: Nasenpolypenzellen; experiment: Proliferation of nasal polyp cells (xCELLigence Real Time Cell Analyzer; figure legend says MTT test); assay type: cell-based, Mensch; conditions: 100 µM 1,8-Cineol, after 144 Stunden; two subjects I and II (Figur 2A)
Text: Material und Methoden: Die Anmelderin hat Gewebeproben aus Nasenpolypen und unteren Nasenmuscheln von Patienten mit CRSwNP (chronischer Rhinosinusitis mit Nasenpolypen) und aus unteren Nasenmuscheln von Probanden ohne chronische Sinusitis (gesunde Schleimhaut) auf Basis von immunohistochemischen Methoden und Immunoblot-Verfahren untersucht. Die zelluläre Proliferation und Migration wurden unter Einsatz des xCELLigence Real Time Cell Analyzer untersucht.
Proben von Nasenpolypen wurden in PBS-Puffer gewaschen und in sterilem serumfreiem "High Glucose Dulbecco's Modified Eagle Medium" (PAA, Pasching, Österreich) mit einer Skalpellklinge vorsichtig in kleine Stücke zerkleinert, wobei das Medium 1 % L-Glutamin, 1 % Natriumpyruvat, 1 % nichtessentielle Aminosäuren, 2 % Amphotericin B, 2 % Streptomycin und 2 % Penicillin, ergänzt mit 10 % FCS, und 25 mM HEPES Puffer, enthielt (alle von PAA, Pasching, Österreich). […]
Die Zellproliferation wurde mittels eines quantitativen kolorimetrischen 3-(4,5-Dimethylthiazol 2-yl)-2,5-diphenyltetrazoliumbromid-basierten (MTT) Zelltests bestimmt. […]

[2] = system: Patienten mit Polyposis nasi et sinuum; assay type: in vivo, Mensch
Text: Im Rahmen einer klinischen Anwendung erhielten 22 Patienten nach einer Nasennebenhöhlenoperation zusätzlich zu einer Standardmedikation 1,8-Cineol (Soledum forte®), 3-mal 1 Kapsel, über einen Zeitraum von 3 Monaten. Die präoperativen CT-Bilder wurden nach dem Lund-Mackay-Score bewertet. Die Patienten wurden gebeten, ihre Beschwerden mittels eines Fragebogens (SNOT20 - German adapted version) einzuschätzen. 21 von 22 Patienten beendeten die Therapie wie vorgesehen. Ein Patient berichtete über gastrointestinale Nebenwirkungen und brach die Behandlung mit 1,8-Cineol ab. […] Somit war ein gutes Ansprechen auf die zusätzliche medikamentöse Behandlung mit 1,8-Cineol bei einem tolerablen Nebenwirkungsprofil zu beobachten.

[3] = system: Polyposis nasi et sinuum; experiment: Cell vitality of polyp single-cell suspensions in culture; assay type: cell-based, Mensch; conditions: 1mM Cineol versus standard medium, culture over 288 Stunden; effect after 96 bis 144 Stunden; polyps of 5 patients
Protocol: Proben von Nasenpolypen wurden in PBS-Puffer gewaschen und in sterilem serumfreiem "High Glucose Dulbecco's Modified Eagle Medium" (PAA, Pasching, Österreich) mit einer Skalpellklinge vorsichtig in kleine Stücke zerkleinert, wobei das Medium 1 % L-Glutamin, 1 % Natriumpyruvat, 1 % nichtessentielle Aminosäuren, 2 % Amphotericin B, 2 % Streptomycin und 2 % Penicillin, ergänzt mit 10 % FCS, und 25 mM HEPES Puffer, enthielt (alle von PAA, Pasching, Österreich). Danach wurden die Gewebeproben durch eine enzymatische Behandlung und Waschschritte mit Collagenase Typ II (31,5 mg/ml, GIBCO, Eggenstein, Deutschland) und Hyaluronidase (3,99 mg/ml, Sigma, München, Deutschland) in einem ersten Schritt und mit Dispase (33,4 mg/ml, Sigma, München, Deutschland) in einem zweiten Schritt jeweils unter Schütteln bei 37 °C für 120 Minuten enzymatisch verdaut. Zwischen den enzymatischen Behandlungen und den Waschschritten wurden die Zellen zentrifugiert. Die resultierenden Zellsuspensionen wurden in PBS (PAA, Pasching, Österreich), enthaltend 2 % BSA, gewaschen und jeweils durch einen 70 µm und einen 60 µm Nylon-Zellfilter (Falcon, Becton Dickinson Labware, Heidelberg, Deutschland) filtriert.
Erste Vorversuche zum Einfluss von Cineol auf die Progression von Polyposis nasi et sinuum wurden durchgeführt. […]

[4] = system: allen untersuchten Zellspezies; experiment: Vitality/proliferation, summary over all cell species investigated; assay type: cell-based; conditions: 10mM
Protocol: Erste Vorversuche zum Einfluss von Cineol auf die Progression von Polyposis nasi et sinuum wurden durchgeführt. Hierzu wurden zunächst Einzelzellsuspensionen hergestellt und diese wurden in der Zellkultur über einen Zeitraum von 288 Stunden mit Standardmedium und mit 1mM Cineol inkubiert.
Es wurden weiterführende Untersuchungen durchgeführt zur Analyse des Einflusses von Cineol auf die Vitalität und Proliferation verschiedener permanenter Zelllinien. Hierzu wurden einerseits die zwei HNSCC-Zelllinien und des Weiteren eine Fibroblastenzelllinie verwendet. Diese wurden über einen Zeitraum von 250 Stunden mit verschiedenen Cineol-Konzentrationen kultiviert (1 mM bis 10 mM) und die Vitalität der Zellen wurde jeweils mittels eines MTT-Assays untersucht.
Hierbei zeigte sich ein ähnliches Bild wie in den vorhergegangenen Untersuchungen zum Einfluss von Cineol auf die Vitalität von Polyposis nasi et sinuum-Einzelzellsupensionen, wobei sich jedoch die permanenten Zelllinien erst zu geringfügig späteren Zeitpunkten und bei geringfügig höheren Cineol-Konzentrationen signifikant in ihrer Proliferation beeinflussen ließen. […]

[5] = system: permanente Zelllinien maligner Kopf-Hals-Tumoren; experiment: Cell migration test (xCELLigence); assay type: cell-based; conditions: 2 mM
Text: Um den Einfluss von Cineol auf die zelluläre Migrations-Aktivität zu untersuchen, wurden Migrations-CIM-Platten 16 (Roche, Mannheim, Deutschland), bei welchen es sich um ein durch eine poröse Membran getrenntes 2-Kammer-System handelt, entsprechend der Bedienungsanleitung des Herstellers verwendet (Roche Diagnostics). Die Zellen wandern dabei von der oberen Kammer durch die Membran und haften an den elektronischen Sensoren an der Unterseite der Membran, so dass ein Anstieg der Impedanz resultiert. Die Veränderungen werden automatisch und kontinuierlich durch das RTCA-DP-Instrument aufgezeichnet, und die Zellmigrations-Aktivität kann durch das Zell-Index-Profil überwacht werden. Vor dem Befüllen der Wells mit Zellen (60.000 Zellen/Well) wurde die Unterseite der Wells der oberen Kammer der CIM-Platte 16 mit 30 µl Collagen I ([…], Sigma, Deisenhofen, Deutschland) beschichtet. Jede Behandlungsbedingung wurde in dreifacher Ausführung gemessen.
Neben der zellulären Vitalität und Progression sowie dem Einfluss auf Apoptose und Zellzyklus hat die Anmelderin auch den Einfluss von Cineol auf das zelluläre Migrationsverhalten untersucht. […]

CC12CCC(CC1)C(C)(C)O2 [1,8-Cineol, 1,3,3-Trimethyl-2-oxabicyclo[2.2.2]octan]
Proliferation von Nasenpolypenzellen [1]: stark verringerte Proliferation; also recorded: stark abnehmende Proliferation
SNOT-20-Score ([2]; first orienting evaluation, compared with preoperative results): deutliche Verbesserung
Rezidivpolyposis ([2]; follow-up examination after 6 months): lediglich bei einem Patienten eine beginnende geringfügige Rezidivpolyposis
gastrointestinale Nebenwirkungen ([2]; in vivo): Ein Patient
Zellvitalität [3]: massiven Abfall
zytotoxische Wirkung [4]: deutlich zytotoxischen Wirkung
zelluläre Migrationsaktivität [5]: leichten Einfluss
